Reference: patent publication US12679878B2, “CRF2 receptor agonists and their use in therapy” (SANOFI, priority 2020, dated 2026)
Like-named read-outs stand apart in the source and are kept apart here. Starred links: 1 amine or outer side, 2 acyl side, 3 side chain; linkers in the order of their positions; H or OH if unused. Non-standard residues stand in square brackets, D forms with d. Residues, ends and D or L forms follow the SMILES beside them. Groups on a side chain read outwards from the residue. *: point of attachment. C18 diacid = O=C(O)CCCCCCCCCCCCCCCCC(=O)*; γGlu = O=C(O)[C@H](CCC(=O)[*:2])N[*:1]; Palmitoyl = CCCCCCCCCCCCCCCC(=O)*; AEEA = NCCOCCOCC(=O)O; Aib = CC(C)(N)C(=O)O

Tests used:
rat CRF2R α receptor = assay: cAMP agonism at rat CRF2R α receptor in A7R5 rat aortic smooth muscle cells (Example 8); assay type: cell-based; conditions: cAMP HTRF, A7R5 rat aortic smooth muscle cell line, 0% HSA
Method: Cells were grown in a T175 culture flask placed at 37° C. to near confluence in medium (DMEM/10% FBS) and collected in 2 ml vials in cell culture medium containing 10% DMSO in a concentration of 10-50 million cells/ml. Each vial contained 1.8 ml cells. The vials were slowly frozen to −80° C. in isopropanol and then transferred in liquid nitrogen for storage. Prior to use, frozen cells were thawed quickly at 37° C. and washed (5 min at 900 rpm) with 20 ml cell buffer (1×HBSS; 20 mM HEPES; 0% or 0.1% HSA). Cells were resuspended in assay buffer (cell buffer plus 2 mM IBMX) and adjusted to a cell density of 1 million cells/ml. For measurement, 5 μl cells (final […]) and 5 μL of test compound were added to a 384-well plate, followed by incubation for 30 minutes at room temperature.
The CAMP content of cells was determined using a kit from Cisbio Corp. (cat. no. 62AM4PEC) based on HTRF (Homogenous Time Resolved Fluorescence). After addition of HTRF reagents diluted in lysis buffer (kit components), the plates were incubated for 1 h, followed by measurement of the fluorescence ratio at 665/620 nm. The percent activity value (E %) was calculated by setting 1000 nM of urocortin 2 (UCN2) as 100%. The in vitro potency of the compounds was quantified by determining the concentrations that caused 50% activation of maximal response (EC50).
Using the procedure described in Example 7, the activity of the compounds at the rat CRF2R α receptor was assessed. The A7R5 rat aortic smooth muscle cell line was used in this study.

human CRF2α receptor = target: T1, human CRF2α receptor (Homo sapiens, UniProt Q13324); assay: cAMP agonism at human CRF2 α receptor in TeloHEAC cells (Example 7); assay type: cell-based; conditions: cAMP HTRF, TeloHEAC cells stably expressing human CRF2 α
T1 construct: expressed in transfected cells; host or cells: TeloHEAC
T1 sequence (Q13324 1-411): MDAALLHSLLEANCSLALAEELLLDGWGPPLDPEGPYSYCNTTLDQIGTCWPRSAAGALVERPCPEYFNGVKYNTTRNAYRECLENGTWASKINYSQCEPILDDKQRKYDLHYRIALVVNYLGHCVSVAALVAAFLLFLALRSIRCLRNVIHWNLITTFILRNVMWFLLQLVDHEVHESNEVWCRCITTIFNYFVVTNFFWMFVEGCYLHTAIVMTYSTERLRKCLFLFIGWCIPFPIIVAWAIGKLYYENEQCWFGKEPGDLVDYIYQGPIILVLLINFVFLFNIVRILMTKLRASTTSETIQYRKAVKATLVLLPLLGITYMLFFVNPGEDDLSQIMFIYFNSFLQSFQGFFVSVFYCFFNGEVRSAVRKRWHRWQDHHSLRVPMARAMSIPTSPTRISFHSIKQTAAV
How it was run: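 HTRF ratio 665/620 nm, read 1 h after lysis reagents, reports cAMP. Cells: thawed stocks, 2000/well, 30 min RT with compound in HBSS, 20 mM HEPES, 0 or 0.1% HSA, 2 mM IBMX. Activity normalised to UCN2 1000 nM = 100%; EC50 from half-maximal activation.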

[1] = 0% HSA, read-out: EC50 [nM], 0% HSA
[2] = 0.1% HSA, read-out: EC50 [nM], 0.1% HSA

Row | SMILES | EC50 (rat CRF2R α receptor) [nM] | EC50 (human CRF2α receptor; [1]) [nM] | EC50 (human CRF2α receptor; [2]) [nM]
1 | CC[C@H](C)[C@H](N)C(=O)N[C@H](C(=O)N[C@@H](CC(C)C)C(=O)N[C@@H](CO)C(=O)N[C@@H](CC(C)C)C(=O)N[C@@H](CC(=O)O)C(=O)N[C@H](C(=O)N1CCC[C@H]1C(=O)N[C@H](C(=O)N[C@@H](CCCCN)C(=O)N[C@@H](CC(C)C)C(=O)N[C@@H](CCCCNC(=O)COCCOCCNC(=O)COCCOCCNC(=O)CC[C@H](NC(=O)CCCCCCCCCCCCCCCCC(=O)O)C(=O)O)C(=O)N[C@@H](CCC(N)=O)C(=O)N[C@H](C(=O)N[C@@H](CC(C)C)C(=O)N[C@@H](CC(C)C)C(=O)N[C@@H](CCC(=O)O)C(=O)N[C@@H](CCC(N)=O)C(=O)N[C@@H](C)C(=O)N[C@@H](CCCCN)C(=O)N[C@@H](CCC(N)=O)C(=O)N[C@@H](CCCCN)C(=O)NC(C)(C)C(=O)N[C@@H](CC(C)C)C(=O)N[C@@H](CCCCN)C(=O)N[C@@H](C)C(=O)N[C@@H](CCC(N)=O)C(=O)N[C@@H](C)C(=O)N[C@@H](CCC(=O)O)C(=O)N[C@H](C(=O)N[C@@H](CC(N)=O)C(=O)N[C@H](C(=O)N[C@@H](CCCNC(=N)N)C(=O)N[C@H](C(=O)N[C@@H](CC(C)C)C(=O)N[C@@H](CCC(=O)O)C(=O)N[C@@H](CCCNC(=N)N)C(=O)N[C@H](C(N)=O)C(C)C)[C@@H](C)CC)C(C)C)[C@@H](C)O)[C@@H](C)CC)[C@@H](C)CC)C(C)C)C(C)C [compound 45] (H-IVLSLDVPIKLK([AEEA-AEEA-γGlu-C18 diacid])QILLEQAKQK[Aib]LKAQAETNVRILERV-NH2) | 47.3 | 3.77 | –
2 | CC[C@H](C)[C@H](NC(C)=O)C(=O)N[C@H](C(=O)N[C@@H](CC(C)C)C(=O)N[C@@H](CO)C(=O)N[C@@H](CC(C)C)C(=O)N[C@@H](CC(=O)O)C(=O)N[C@@H](C(=O)N1CCC[C@H]1C(=O)N[C@H](C(=O)N[C@@H](CCCCN)C(=O)N[C@@H](CC(C)C)C(=O)N[C@@H](CCCCNC(=O)COCCOCCNC(=O)COCCOCCNC(=O)CC[C@H](NC(=O)CCCCCCCCCCCCCCCCC(=O)O)C(=O)O)C(=O)N[C@@H](CCC(N)=O)C(=O)N[C@H](C(=O)N[C@@H](CC(C)C)C(=O)N[C@@H](CC(C)C)C(=O)N[C@@H](CCC(=O)O)C(=O)N[C@@H](CCC(N)=O)C(=O)N[C@@H](C)C(=O)N[C@@H](CCCNC(=N)N)C(=O)N[C@@H](CCC(N)=O)C(=O)N[C@@H](CCCCN)C(=O)NC(C)(C)C(=O)N[C@@H](CCC(N)=O)C(=O)N[C@@H](CCCNC(=N)N)C(=O)N[C@@H](CCC(=O)O)C(=O)N[C@@H](CCC(N)=O)C(=O)N[C@@H](C)C(=O)N[C@@H](CCC(=O)O)C(=O)N[C@@H](CCCCN)C(=O)N[C@@H](CC(N)=O)C(=O)N[C@@H](CCCCN)C(=O)N[C@@H](CCC(N)=O)C(=O)N[C@H](C(=O)N[C@@H](CC(C)C)C(=O)N[C@@H](CCC(=O)O)C(=O)N[C@@H](CCC(N)=O)C(=O)N[C@H](C(N)=O)C(C)C)[C@@H](C)CC)[C@@H](C)CC)[C@@H](C)CC)C(C)C)C(C)C [compound 157] (Ac-IVLSLD[dV]PIKLK([AEEA-AEEA-γGlu-C18 diacid])QILLEQARQK[Aib]QREQAEKNKQILEQV-NH2) | 1.14 | 0.12 | 2.53
3 | CC[C@H](C)[C@H](NC(C)=O)C(=O)N[C@H](C(=O)N[C@@H](CC(C)C)C(=O)N[C@@H](CO)C(=O)N[C@@H](CC(C)C)C(=O)N[C@@H](CC(=O)O)C(=O)N[C@@H](C(=O)N1CCC[C@H]1C(=O)N[C@H](C(=O)N[C@@H](CCCCN)C(=O)N[C@@H](CC(C)C)C(=O)N[C@@H](CCCCNC(=O)COCCOCCNC(=O)COCCOCCNC(=O)CC[C@H](NC(=O)CCCCCCCCCCCCCCCCC(=O)O)C(=O)O)C(=O)N[C@@H](CCC(N)=O)C(=O)N[C@H](C(=O)N[C@@H](CC(C)C)C(=O)N[C@@H](CC(C)C)C(=O)N[C@@H](CCC(=O)O)C(=O)N[C@@H](CCC(N)=O)C(=O)N[C@@H](CCC(=O)O)C(=O)N[C@@H](CCCNC(=N)N)C(=O)N[C@@H](CCC(N)=O)C(=O)N[C@@H](CCCCN)C(=O)NC(C)(C)C(=O)N[C@@H](CCC(N)=O)C(=O)N[C@@H](CCCNC(=N)N)C(=O)N[C@@H](CCC(=O)O)C(=O)N[C@@H](CCC(N)=O)C(=O)N[C@@H](C)C(=O)N[C@@H](CCC(=O)O)C(=O)N[C@@H](CCCCN)C(=O)N[C@@H](CC(N)=O)C(=O)N[C@@H](CCCCN)C(=O)N[C@@H](CCC(N)=O)C(=O)N[C@H](C(=O)N[C@@H](CC(C)C)C(=O)N[C@@H](CCC(=O)O)C(=O)N[C@@H](CCC(N)=O)C(=O)N[C@H](C(N)=O)C(C)C)[C@@H](C)CC)[C@@H](C)CC)[C@@H](C)CC)C(C)C)C(C)C [compound 158] (Ac-IVLSLD[dV]PIKLK([AEEA-AEEA-γGlu-C18 diacid])QILLEQERQK[Aib]QREQAEKNKQILEQV-NH2) | 5.29 | 0.42 | 5.63
4 | CC[C@H](C)[C@H](NC(C)=O)C(=O)N[C@H](C(=O)N[C@@H](CC(C)C)C(=O)N[C@@H](CO)C(=O)N[C@@H](CC(C)C)C(=O)N[C@@H](CC(=O)O)C(=O)N[C@@H](C(=O)N1CCC[C@H]1C(=O)N[C@H](C(=O)N[C@@H](CCCCN)C(=O)N[C@@H](CC(C)C)C(=O)N[C@@H](CCCCNC(=O)COCCOCCNC(=O)COCCOCCNC(=O)CC[C@H](NC(=O)CCCCCCCCCCCCCCCCC(=O)O)C(=O)O)C(=O)N[C@@H](CCC(N)=O)C(=O)N[C@H](C(=O)N[C@@H](CC(C)C)C(=O)N[C@@H](CC(C)C)C(=O)N[C@@H](CCC(=O)O)C(=O)N[C@@H](CCC(N)=O)C(=O)N[C@@H](CCC(=O)O)C(=O)N[C@@H](CCCNC(=N)N)C(=O)N[C@@H](CCC(N)=O)C(=O)N[C@@H](CCC(=O)O)C(=O)NC(C)(C)C(=O)N[C@@H](CCC(N)=O)C(=O)N[C@@H](CCCNC(=N)N)C(=O)N[C@@H](CCC(=O)O)C(=O)N[C@@H](CCC(N)=O)C(=O)N[C@@H](C)C(=O)N[C@@H](CCC(=O)O)C(=O)N[C@@H](CCCCN)C(=O)N[C@@H](CC(N)=O)C(=O)N[C@@H](CCCCN)C(=O)N[C@@H](CCC(N)=O)C(=O)N[C@H](C(=O)N[C@@H](CC(C)C)C(=O)N[C@@H](CCC(=O)O)C(=O)N[C@@H](CCC(N)=O)C(=O)N[C@H](C(N)=O)C(C)C)[C@@H](C)CC)[C@@H](C)CC)[C@@H](C)CC)C(C)C)C(C)C [compound 159] (Ac-IVLSLD[dV]PIKLK([AEEA-AEEA-γGlu-C18 diacid])QILLEQERQE[Aib]QREQAEKNKQILEQV-NH2) | 15.6 | 1.27 | 27.4
5 | CCCCCCCCCCCCCCCC(=O)N[C@@H](CCC(=O)NCCCC[C@H](NC(=O)[C@H](CC(C)C)NC(=O)[C@H](CCCCN)NC(=O)[C@@H](NC(=O)[C@@H]1CCCN1C(=O)[C@H](NC(=O)[C@H](CC(=O)O)NC(=O)[C@H](CC(C)C)NC(=O)[C@H](CO)NC(=O)[C@H](CC(C)C)NC(=O)[C@@H](NC(=O)[C@@H](N)[C@@H](C)CC)C(C)C)C(C)C)[C@@H](C)CC)C(=O)N[C@@H](CCC(N)=O)C(=O)N[C@@H](CCCCN)C(=O)N[C@@H](CC(C)C)C(=O)N[C@@H](CC(C)C)C(=O)N[C@@H](CCCCN)C(=O)N[C@@H](CCC(N)=O)C(=O)N[C@@H](CCC(N)=O)C(=O)N[C@@H](CCCNC(=N)N)C(=O)N[C@@H](CCC(N)=O)C(=O)N[C@@H](CCCNC(=N)N)C(=O)N[C@@H](CCCCN)C(=O)N[C@@H](CCC(=O)O)C(=O)N[C@@H](CCCNC(=N)N)C(=O)N[C@@H](CCC(N)=O)C(=O)N[C@@H](CCC(N)=O)C(=O)N[C@@H](C)C(=O)N[C@@H](CCC(=O)O)C(=O)N[C@@H](CCCCN)C(=O)N[C@@H](CC(N)=O)C(=O)N[C@@H](CCCCN)C(=O)N[C@@H](CCCNC(=N)N)C(=O)N[C@H](C(=O)N[C@@H](CC(C)C)C(=O)N[C@@H](CCC(=O)O)C(=O)N[C@@H](CCCNC(=N)N)C(=O)N[C@H](C(N)=O)C(C)C)[C@@H](C)CC)C(=O)O [compound 227] (H-IVLSLD[dV]PIKLK([γGlu-Palmitoyl])QKLLKQQRQRKERQQAEKNKRILERV-NH2) | 0.61 | – | –
